Data set [1] deals with Plasmodium falciparum. The data set is described as follows: Antimalarial activity against Chloroquine resistant blood stage Plasmodium falciparum clone W2. It is filed as functional, organism-based.
For data set [2], the system named is Plasmodium berghei. The data set is described as follows: In vivo antiplasmodial activity against Plasmodium berghei infected in Swiss mouse assessed as reduction of parasitaemia at 100 mg/kg, po for 3 days. More on the design: scale not given: the % may be the effect or the level left. As to conditions: time 3 day. It is filed as functional.
For data set [3], the system named is Plasmodium falciparum. The data set is described as follows: Antimalarial activity against Plasmodium falciparum D6. The format is functional, organism-based.
Data set [4] relates to Plasmodium falciparum. Nature of the data set: Antimalarial activity against Plasmodium falciparum W2. The format is functional, organism-based.
Data set [5] deals with Plasmodium berghei. Nature of the data set: Antimalarial activity against Plasmodium berghei. The format is functional, organism-based.
The next data set deals with HEK293. The data set is described as follows: Cytotoxicity against HEK293 cells incubated for 48 hrs by MTT assay. It is filed as functional. As to conditions: Homo sapiens. (Tetrazolium assays rely on reduction of a dye to a coloured formazan, in cell work by metabolically active cells.)
Data set [6] concerns Plasmodium falciparum. Nature of the data set: Antimalarial activity against Plasmodium falciparum RKL-2 assessed as inhibition of malarial growth by measuring dead rings/schizonts at 50 ug/ml relative to control. The format is functional.
In data set [7] the test system is Plasmodium falciparum. Nature of the data set: Antimalarial activity against Plasmodium falciparum 3D7 assessed as inhibition of malarial growth by measuring dead rings/schizonts at 50 ug/ml relative to control. It is filed as functional.
Data set [8] has as its system Plasmodium falciparum. The data set is described as follows: Antimalarial activity against Plasmodium falciparum 3D7. The format is functional, organism-based.
Data set [9] deals with Plasmodium falciparum. The data set is described as follows: Antimalarial activity against Plasmodium falciparum RKL-2. It is filed as functional, organism-based.
Data set [10] concerns Plasmodium falciparum. The data set is described as follows: Antimalarial activity against Plasmodium falciparum. It is filed as functional, organism-based.
The subject of data set [11] is Plasmodium falciparum. Nature of the data set: Antiplasmodial activity against Plasmodium falciparum K1. It is filed as functional, organism-based.
Data set [12] has as its system Plasmodium berghei. The data set is described as follows: In vivo antiplasmodial activity against Plasmodium berghei infected in mouse assessed as reduction of parasitaemia at 50 mg/kg/day, ip for 4 days relative to control. The format is functional. More on the design: scale not given: the % may be the effect or the level left. The settings on record: time 4 day.

The test system of data set [13] is Plasmodium berghei. The data set is described as follows: In vivo antiplasmodial activity against Plasmodium berghei infected in mouse assessed as increase in mean survival time at 50 mg/kg/day, ip for 4 days (reference value: 4 to 6 days). The format is functional. As to conditions: time 4 day.
Data set [14] has as its system Plasmodium berghei. The data set is described as follows: In vivo antiplasmodial activity against Plasmodium berghei infected in mouse assessed as reduction of parasitaemia at 100 mg/kg/day, po for 4 days relative to control. The settings on record: time 4 day. On the set-up: scale not given: the % may be the effect or the level left. It is filed as functional.
In data set [15] the test system is Plasmodium falciparum. Nature of the data set: Antiplasmodial activity against Chloroquine resistant plasmodium falciparum FCR-3. The format is functional, organism-based.
Data set [16] concerns Plasmodium falciparum. Nature of the data set: Antimalarial activity against Plasmodium falciparum W2 by 96-well microtitre plate method based scintillation counting analysis. It is filed as functional, organism-based.
Data set [17] deals with Plasmodium falciparum. Nature of the data set: Antiplasmodial activity against Chloroquine resistant Plasmodium falciparum FcB1 incubated for 48 hrs by SYBR green I based fluorescence assay. It is filed as functional, organism-based. The settings on record: FcB1, 48 h.
Data set [18] deals with Plasmodium berghei. Nature of the data set: In vivo plasmodial activity against Plasmodium berghei ANKA infected in Swiss mouse assessed as survival rate at 50 mg/kg, ip for 4 days after infection relative to control. It is filed as functional. As to conditions: time 4 day.
Another data set concerns HepG2. Nature of the data set: Cytotoxicity against human HepG2 cells incubated for 24 hrs by MTT assay. It is filed as functional.
For the next data set, the system named is A549. Nature of the data set: Cytotoxicity against human A549 cells incubated for 24 hrs by MTT assay. It is filed as functional.
Data set [19] can be described thus: Cytotoxicity against […] LLC-PK1 cells incubated for 24 hrs by MTT assay. It is filed as toxicity, cell-based, Sus scrofa. As to conditions: pig.
Data set [20] in a line: Cytotoxicity against human MRC5 cells incubated for 24 hrs by MTT assay. The format is toxicity, cell-based.
Data set [21] deals with Plasmodium falciparum. Nature of the data set: Antimalarial activity against Plasmodium falciparum W2 incubated for 24 hrs. As to conditions: Plasmodium falciparum, W2, 24 h. The format is functional, organism-based.
Data set [22] deals with Plasmodium falciparum. Nature of the data set: Antimalarial activity against chloroquine sensitive Plasmodium falciparum RKL-2 by Giemsa staining method. The format is functional, organism-based.
In data set [23] the test system is Plasmodium falciparum. The data set is described as follows: Antimalarial activity against chloroquine resistant Plasmodium falciparum RKL-9 by Giemsa staining method. It is filed as functional, organism-based.
Data set [24] has as its system Plasmodium falciparum. Nature of the data set: Antimalarial activity against multi-drug resistant Plasmodium falciparum K1. The format is functional, organism-based.
For data set [25], the system named is Plasmodium falciparum. Nature of the data set: Antiplasmodial activity against Plasmodium falciparum W2 assessed as inhibition of parasite growth after 48 hrs by pLDH assay. It is filed as functional, organism-based. The settings on record: W2, 48 h.
Data set [26] concerns Plasmodium falciparum. Nature of the data set: Antimalarial activity against chloroquine sensitive Plasmodium falciparum RKL-2. The format is functional, organism-based.
Data set [27] concerns Plasmodium falciparum. Nature of the data set: Antimalarial activity against chloroquine resistant Plasmodium falciparum RKL-9. It is filed as functional, organism-based.
The subject of data set [28] is Plasmodium falciparum. Nature of the data set: Antimalarial activity against Plasmodium falciparum NF54 by 96-well microtitre plate method based scintillation counting analysis. The format is functional, organism-based.
Data set [29] deals with Plasmodium falciparum. Nature of the data set: Antimalarial activity against chloroquine resistant Plasmodium falciparum K1 incubated for 72 hrs by SYBR green staining based fluorescence reader method. The format is functional, organism-based. As to conditions: K1, 72 h.
A short description of data set [30]: Cytotoxicity against African green monkey Vero cells. The format is toxicity, cell-based. The settings on record: chlorocebus sabaeus.
The nature of data set [31]: Selectivity index, ratio of CC50 for african green monkey Vero cells to IC50 for Chloroquine resistant Plasmodium falciparum K1. The format is toxicity. The settings on record: read-out: Ratio CC50/IC50.
Data set [32] concerns Plasmodium falciparum. Nature of the data set: Antimalarial activity against chloroquine […] Plasmodium falciparum 3D7 incubated for 72 hrs by SYBR green staining based fluorescence reader method. It is filed as functional, organism-based. As to conditions: 3D7, 72 h.

Converted amounts (≈) assume the structure as drawn.

In general, IC50 refers to the concentration needed to halve the response being measured. In turn, `O=C1C(O)=C(CN2CC3CCC2CC3)C(=O)c2ccccc21` had an IC50 in the data set with Plasmodium falciparum [1] of 1300 nM. Besides, in the data set on Plasmodium berghei [2], the Activity result was “<=63%”.
Usually CC50 stands for the concentration that lowers cell viability or growth by half. Turning to `O=C1C(O)=C([C@H]2CC[C@H](c3ccc(Cl)cc3)CC2)C(=O)c2ccccc21` [ATOVAQUONE], the IC50 in the data set with Plasmodium falciparum [3] stood at 0.34 nM; in the data set on Plasmodium falciparum [4], 1 nM; in the data set with Plasmodium berghei [5], 19.7 nM. The compound further gave a CC50 in the data set on HEK293 of 49 nM.
A word on the inhibition: it is the drop in the measured response relative to a control, in per cent. As to `O=C1C(O)=C(C(Nc2cccc([N+](=O)[O-])c2)c2ccc([N+](=O)[O-])cc2)C(=O)c2ccccc21` (centres undefined), the inhibition at 50 µg/mL in the data set on Plasmodium falciparum [6] amounted to 70%; in the data set with Plasmodium falciparum [7], 72.5%. In addition, the IC50 came to 475 nM with Plasmodium falciparum [8] and 1390 nM with Plasmodium falciparum [9].
In the data set on Plasmodium falciparum [1], `CCCN(CCC)CC1=C(O)C(=O)c2ccccc2C1=O` gave an IC50 of 1900 nM. Further, in the data set with Plasmodium berghei [2], the Activity entry is recorded as “<=63%”.
`CNCCCCNCCCNC(=O)c1c(C)oc2c1C(=O)c1ccccc1C2=O`: in the data set with Plasmodium falciparum [10], half-maximal inhibition (IC50) required 50 nM.
For the compound `O=C(O)c1cc2c(o1)C(=O)C1=C(C2=O)S(=O)(=O)C=CN1`, half-maximal inhibition with Plasmodium falciparum [11] (IC50) required 120 nM. Moreover, the Activity with Plasmodium berghei [12] is on record as 85.7%; in the data set on Plasmodium berghei [14], 47%. For the same compound, in the data set with Plasmodium berghei [13], the Time was determined as 9 days.
In the data set with Plasmodium falciparum [15], `COC(=O)/C(=C\CC/C(C)=C/CC/C(C)=C/CC1=CC(=O)C=C(C)C1=O)CCC=C(C)C` displayed an IC50 of 8200 nM.
The compound `C=C(C)C1CC2=C(O1)C(=O)c1ccccc1C2=O` (stereo not drawn) [DEHYDROISO-ALPHA-LAPACHONE] showed a 50% inhibitory concentration (IC50) with Plasmodium falciparum [16] of 7.53 µg/mL (≈ 31.3 µM).
Take `COc1ccc2c(c1)C(=O)C(=O)C1=C2OC(C)C1(C)C` (centres undefined): the midpoint of inhibition in the data set on Plasmodium falciparum [17], the IC50, lay at 845 nM. Further, in the data set with Plasmodium berghei [18], the Activity worked out at 100%.
With `CC(C)=CCC1=C(O)C(=O)c2ccccc2C1=O` [LAPACHOL], the half-maximal cytotoxic concentration (CC50) in the data set on HepG2 and with A549 was ≥ 285000 nM each time. Also, the CC50 at 24 h in data set [19] and in data set [20] was ≥ 285000 nM each time. Moreover, in the data set on Plasmodium falciparum [21], the IC50 was found to be 80000 nM.
With `O=C1C(O)=C(NCCNc2ccnc3cc(Cl)ccc23)C(=O)c2ccccc21`, the IC50 was 0.391 µg/mL (≈ 0.993 µM) in the data set with Plasmodium falciparum [22] and 0.684 µg/mL (≈ 1.74 µM) in the data set on Plasmodium falciparum [23].
The compound `CSC1=CC2=C(C(=O)c3ccc([C@H]4C[C@@H](O)[C@H](O)[C@@H](C)O4)c(O)c3C2=O)[C@@]2(O)C(=O)C[C@](C)(O)C[C@@]12O` had an IC50 in the data set on Plasmodium falciparum [24] of 0.0534 µg/mL (≈ 0.1 µM).
As to `O=C1c2ccccc2C(=O)c2oc(Cc3ccccc3)cc21`, the IC50 in the data set on Plasmodium falciparum [25] was found to be 1500 nM.
Consider `CCCNCc1cc(NC2=C(O)C(=O)c3ccccc3C2=O)ccc1O`, for which the IC50 in the data set with Plasmodium falciparum [26] is 0.453 µg/mL (≈ 1.29 µM); with Plasmodium falciparum [27], 2.92 µg/mL (≈ 8.29 µM).
Take `COc1cc(O)c(-c2c(C)cc(O)c3c2C(=O)c2cccc(O)c2C3=O)c(O)c1C(C)=O` [KNIPHOLONE]: in the data set with Plasmodium falciparum [28], inhibition was half-maximal at 1700 nM (IC50).
Turning to `Cc1cc(O)c2c(c1)C(=O)c1cc(O)c(CN3CCCCC3)c(O)c1C2=O`, the IC50 came out at 2280 nM in the data set with Plasmodium falciparum [29] and 2740 nM in the data set on Plasmodium falciparum [32]. In addition, half-maximal cytotoxicity in data set [30] (CC50) was put at 782000 nM. In addition, the selectivity ratio in [31] worked out at 315.
Take `O=C1C(O)=C(Nc2ccc(O)c(CN3CCOCC3)c2)C(=O)c2ccccc21`: the values for the IC50 in the data set with Plasmodium falciparum [26] and in the data set on Plasmodium falciparum [27] were 0.391 µg/mL (≈ 1.03 µM) and 0.993 µg/mL (≈ 2.61 µM), respectively.

These data come from ChEMBL document CHEMBL5113376, “Antimalarial application of quinones: A recent update” (Eur J Med Chem, 2021).
